Data published in ChEMBL document CHEMBL1201862, “PubChem BioAssay data set” (2004).
Activity calls are given as the source filed them.

Experiments:
[1] = insulin promoter down-regulators in MIN6 cells, imaging, high-content screening, mouse beta cells (AID 1628); type: functional
[2] = cytotoxicity in MIN6 insulinoma cells, dose response, cytotoxicity control, cell-based, mouse insulinoma (AID 2122); type: functional;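 further: confirmatory high-throughput counterscreen run to flag cytotoxic compounds; mouse MIN-6 beta cells carrying an insulin promoter eGFP reporter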
[3] = system: INS1; test: beta cell apoptosis inhibitors, cytokine rescue, dose response, luminescence, retest (AID 449756); type: functional, cell-based; details: Rattus norvegicus;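 further: cell death triggered by IL-1 beta plus TNF-alpha plus IFN-gamma mixture; protective hits raise ATP signal compared with cytokine alone wells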
[4] = target: T1, Histone-lysine N-methyltransferase NSD2 (Homo sapiens, UniProt O96028); type: biochemical
T1 sequence (O96028 whole entry): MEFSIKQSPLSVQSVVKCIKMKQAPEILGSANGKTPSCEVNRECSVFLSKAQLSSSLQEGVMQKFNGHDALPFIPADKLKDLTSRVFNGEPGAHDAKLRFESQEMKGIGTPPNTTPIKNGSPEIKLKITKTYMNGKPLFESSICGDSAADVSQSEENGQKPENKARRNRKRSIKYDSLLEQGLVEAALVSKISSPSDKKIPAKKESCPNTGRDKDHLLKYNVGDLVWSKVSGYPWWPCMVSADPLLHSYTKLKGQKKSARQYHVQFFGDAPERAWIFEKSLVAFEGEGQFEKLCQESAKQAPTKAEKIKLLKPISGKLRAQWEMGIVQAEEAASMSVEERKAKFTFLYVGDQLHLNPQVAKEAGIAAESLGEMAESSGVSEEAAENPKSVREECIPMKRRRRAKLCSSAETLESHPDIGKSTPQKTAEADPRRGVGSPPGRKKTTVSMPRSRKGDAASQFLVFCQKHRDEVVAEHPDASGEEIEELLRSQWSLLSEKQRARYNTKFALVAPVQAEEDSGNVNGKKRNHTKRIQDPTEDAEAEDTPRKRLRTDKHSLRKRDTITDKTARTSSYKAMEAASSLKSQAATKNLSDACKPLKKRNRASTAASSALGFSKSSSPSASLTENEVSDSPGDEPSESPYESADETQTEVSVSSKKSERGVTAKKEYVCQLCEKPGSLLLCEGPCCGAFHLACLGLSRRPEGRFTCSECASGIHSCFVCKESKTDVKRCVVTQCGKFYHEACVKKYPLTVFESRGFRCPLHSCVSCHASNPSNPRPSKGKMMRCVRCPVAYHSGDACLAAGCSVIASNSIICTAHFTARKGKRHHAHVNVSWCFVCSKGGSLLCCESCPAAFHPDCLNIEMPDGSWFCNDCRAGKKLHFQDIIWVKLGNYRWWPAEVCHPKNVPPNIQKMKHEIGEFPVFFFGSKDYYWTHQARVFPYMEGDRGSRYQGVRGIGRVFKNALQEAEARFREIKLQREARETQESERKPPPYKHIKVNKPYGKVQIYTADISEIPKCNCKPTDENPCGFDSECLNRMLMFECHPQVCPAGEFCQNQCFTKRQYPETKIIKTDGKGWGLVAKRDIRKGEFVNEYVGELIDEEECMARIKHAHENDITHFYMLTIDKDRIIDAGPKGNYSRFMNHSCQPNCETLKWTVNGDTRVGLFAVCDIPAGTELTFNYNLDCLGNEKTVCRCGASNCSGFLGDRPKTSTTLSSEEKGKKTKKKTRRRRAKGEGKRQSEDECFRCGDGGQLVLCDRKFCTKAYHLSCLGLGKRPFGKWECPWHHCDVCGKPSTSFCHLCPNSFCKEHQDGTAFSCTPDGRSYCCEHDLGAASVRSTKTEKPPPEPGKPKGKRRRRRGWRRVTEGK

[5] = target: T2, Adenosylmethionine-8-amino-7-oxononanoate aminotransferase (Mycobacterium tuberculosis, UniProt P9WQ81); test: Mycobacterium tuberculosis BioA enzyme inhibitor Measured in Biochemical System Using Plate Reader - 2163-02_Inhibitor_Dose_CherryPick_Activity.; type: functional, Mycobacterium tuberculosis UT205
T2 sequence (P9WQ81 whole entry): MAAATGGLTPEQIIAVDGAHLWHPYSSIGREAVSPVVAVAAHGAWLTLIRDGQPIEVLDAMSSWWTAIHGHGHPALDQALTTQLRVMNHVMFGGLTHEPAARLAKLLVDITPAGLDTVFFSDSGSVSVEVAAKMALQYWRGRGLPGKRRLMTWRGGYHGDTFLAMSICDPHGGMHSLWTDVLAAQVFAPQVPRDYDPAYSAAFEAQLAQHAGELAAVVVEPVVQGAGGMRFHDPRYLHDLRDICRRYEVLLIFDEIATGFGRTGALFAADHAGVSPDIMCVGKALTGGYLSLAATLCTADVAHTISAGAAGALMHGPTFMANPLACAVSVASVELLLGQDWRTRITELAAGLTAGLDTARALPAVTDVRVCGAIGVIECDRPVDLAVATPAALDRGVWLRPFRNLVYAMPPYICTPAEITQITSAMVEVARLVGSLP

[6] = system: Vero; test: Vero cell cytotoxicity, cytotoxicity control for flavivirus capping enzyme inhibitors (AID 588742); type: functional; details: Chlorocebus sabaeus
[7] = target: T3, Small ubiquitin-related modifier 1 (Homo sapiens, UniProt P63165); test: inhibitors of SUMO1 peptide binding, dose response, biochemical, fluorescence polarization, uHTS hits (AID 624382); type: functional; details: read-out: IC50_Mean
[8] = target: T3, Small ubiquitin-related modifier 1; test: inhibitors of SUMO1 partner interactions, dose response, biochemical, FRET (AID 624383); type: functional; details: read-out: IC50_Mean
[9] = target: T4, Endoribonuclease toxin MazF (Escherichia coli K-12, UniProt P0AE70); test: MazF toxin RNase activators, dose response, biochemical, fluorescence, single-stranded RNA substrate, uHTS hits (AID 588481); type: functional
T4 sequence (P0AE70 whole entry): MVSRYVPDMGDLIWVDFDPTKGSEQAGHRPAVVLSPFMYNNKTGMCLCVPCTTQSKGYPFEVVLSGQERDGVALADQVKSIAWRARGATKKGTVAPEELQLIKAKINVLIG

[10] = target: T4, Endoribonuclease toxin MazF; test: fluorescent RNA oligo signal without MazF, dose response, counter-screen for MazEF activator project, biochemical, fluorescence, single-stranded RNase substrate (AID 588502); type: functional
[11] = target: Protein Wnt-3a (Mus musculus, UniProt P27467); test: Wnt3a-driven reporter signaling inhibition, dose response, selectivity assay for Gli-SUFU antagonist project, Wnt-LIGHT cells, luminescence (AID 651570); type: functional; details: read-out: IC50_Mean;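 further: Wnt-LIGHT reporter cells stimulated with conditioned medium from Wnt3a-producing cells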
[12] = target: Melanocortin receptor 4 (Homo sapiens, UniProt P32245); type: functional, cell-based;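 further: Cell-based assay with luminescence read-out, confirmatory dose-response testing for agonist activity of biased ligands at MC4R; human U2OS cells with tagged receptor and beta-arrestin; potency of agonists that increase receptor coupling to beta-arrestin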
[13] = inhibitors of firefly luciferase expression or activity, dose response, H4 neuroglioma cells, luminescence (AID 1990); type: functional, cell-based
[14] = Luminescence Cell-Based Dose Response HTS to Identify Inhibitors of 5'UTR Stem-Loop Driven Prion Protein mRNA Translation in H4 Neuroglioblastoma Cells. [Related pubchem assays: 1827 (Project Summary), 1813 (Primary HTS)]; type: functional
[15] = inhibitors of SNCA 5'UTR-driven reporter translation, confirmation, H4 neuroglioma cells, luminescence (AID 1988); type: functional, cell-based
[16] = Luminescence Cell-Based Dose Retest to Confirm Inhibitors of Cancer Stem Cells. [Related pubchem assays (depositor defined):AID2717, AID2721]; type: functional; details: Homo sapiens
[17] = HeLa cell cytotoxicity, dose response, cytotoxicity control for MgcRacGAP inhibitor project (AID 624300); type: functional
[18] = target: T5, Rac GTPase-activating protein 1 (Homo sapiens, UniProt Q9H0H5); test: MgcRacGAP GTPase-activating activity inhibitors, confirmation, biochemical, ADP Hunter fluorescence, primary and confirmatory (AID 624330); type: functional
T5 sequence (Q9H0H5 whole entry): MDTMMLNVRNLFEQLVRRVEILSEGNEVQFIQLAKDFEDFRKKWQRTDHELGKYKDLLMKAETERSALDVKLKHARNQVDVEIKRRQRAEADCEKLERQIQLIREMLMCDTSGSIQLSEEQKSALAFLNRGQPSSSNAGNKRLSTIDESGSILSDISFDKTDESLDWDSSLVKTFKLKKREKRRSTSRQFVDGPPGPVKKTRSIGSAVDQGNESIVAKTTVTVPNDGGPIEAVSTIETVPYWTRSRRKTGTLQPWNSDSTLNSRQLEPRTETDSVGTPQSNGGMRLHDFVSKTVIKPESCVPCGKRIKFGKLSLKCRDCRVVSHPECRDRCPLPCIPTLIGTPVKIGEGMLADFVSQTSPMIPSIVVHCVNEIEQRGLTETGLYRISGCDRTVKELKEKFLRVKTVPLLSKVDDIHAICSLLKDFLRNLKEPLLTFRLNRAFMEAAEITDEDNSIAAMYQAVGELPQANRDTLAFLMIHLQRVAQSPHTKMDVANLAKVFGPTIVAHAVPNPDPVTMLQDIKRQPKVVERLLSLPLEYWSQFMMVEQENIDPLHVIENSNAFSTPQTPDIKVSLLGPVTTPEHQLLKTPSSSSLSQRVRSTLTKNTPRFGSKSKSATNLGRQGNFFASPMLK

T3 sequence (P63165 whole entry): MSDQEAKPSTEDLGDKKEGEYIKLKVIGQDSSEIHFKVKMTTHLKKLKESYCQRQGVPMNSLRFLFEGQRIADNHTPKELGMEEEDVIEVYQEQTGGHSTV
Chain of Protein Wnt-3a (P27467 whole entry): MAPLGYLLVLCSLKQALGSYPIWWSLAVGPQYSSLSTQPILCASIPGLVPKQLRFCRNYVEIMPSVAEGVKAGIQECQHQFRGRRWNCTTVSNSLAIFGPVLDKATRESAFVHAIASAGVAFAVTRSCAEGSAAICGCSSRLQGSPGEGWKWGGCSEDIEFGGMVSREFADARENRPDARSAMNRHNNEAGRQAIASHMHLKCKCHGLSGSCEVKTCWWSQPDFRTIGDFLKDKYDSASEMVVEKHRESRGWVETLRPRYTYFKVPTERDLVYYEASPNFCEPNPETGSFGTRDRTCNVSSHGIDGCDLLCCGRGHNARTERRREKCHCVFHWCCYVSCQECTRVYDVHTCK
Chain of Melanocortin receptor 4 (P32245 whole entry): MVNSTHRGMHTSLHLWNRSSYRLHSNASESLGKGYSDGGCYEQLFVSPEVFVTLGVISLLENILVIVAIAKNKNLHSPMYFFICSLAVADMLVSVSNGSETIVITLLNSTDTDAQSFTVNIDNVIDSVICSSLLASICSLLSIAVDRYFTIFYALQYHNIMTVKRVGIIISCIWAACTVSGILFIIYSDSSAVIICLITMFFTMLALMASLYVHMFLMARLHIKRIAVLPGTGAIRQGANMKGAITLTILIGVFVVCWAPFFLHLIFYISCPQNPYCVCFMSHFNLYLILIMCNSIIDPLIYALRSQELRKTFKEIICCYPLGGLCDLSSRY

**Q.** Which results are given for `CN1/C(=C\C(=O)COC(=O)c2ccc(O)c(O)c2)C(C)(C)c2ccccc21`?
**A.** IC50 [1]: 0.784 µM (active); IC50 [2]: 0.454 µM (active); AC50 [3]: 6.68 µM (active); AC50 [4]: > 20 µM (inactive)

**Q.** With `CC(=O)N1CCN(c2ccc([N+](=O)[O-])cc2C=C2C(=O)NC(=O)NC2=O)CC1` as the compound, how does the AC50 [5] read?
**A.** Its AC50 is 8.51 µM (active).

**Q.** Which CC50 [6] does the source give for `C=CCn1c(=S)[nH]c2scc(-c3ccc(C)o3)c2c1=O` here?
**A.** Its CC50 is 37.2 µM (active).

**Q.** Which results are given for `Cc1[nH]c2ccc(C(=O)OCC(=O)Nc3cccc(S(N)(=O)=O)c3)cc2c1C`?
**A.** IC50 [7]: > 66.6 µM (inactive); IC50 [8]: 0.624 µM (active)

**Q.** Which EC50 [9] does the source give for `CCOC(=O)CSc1nc2cc(OC)ccc2cc1C#N` here?
**A.** Its EC50 is > 99 µM (inactive).

**Q.** And the EC50 [10]?
**A.** The EC50 was > 99 µM (inactive).

**Q.** For `COc1ccccc1CN(Cc1nc(O)c2ccccc2n1)S(=O)(=O)c1ccc(C)cc1`, which IC50 [11] is on record?
**A.** Its IC50 is 32.7 µM (inactive).

**Q.** With `COc1ccc(NC(=O)Nc2nnc(-c3ccccc3SCc3ccccc3)s2)cc1` as the compound, how does the EC50 [12] read?
**A.** Its EC50 is > 89.2 µM (inactive).

**Q.** For `O=S(=O)(c1ccc2c(c1)nc(COc1ccc(Cl)cc1)n2CC1CCCO1)N1CCOCC1` (stereo not given), which EC50 [13] is on record?
**A.** Its EC50 is 19.6 µM (active).

**Q.** And the EC50 [14]?
**A.** Its EC50 is > 120 µM (not active).

**Q.** And the EC50 [15]?
**A.** The EC50 was 15.8 µM (active).

**Q.** And the IC50 [11]?
**A.** The IC50 was 4.1 µM (active).

**Q.** What does the source list for `COc1ccc(-c2csc(C3=C(N)N(Cc4ccc(Cl)cc4)CC3=O)n2)cc1OC`?
**A.** EC50 [13]: > 120 µM (not active); EC50 [14]: 32.9 µM (active); EC50 [15]: 85.3 µM (active); EC50 [12]: > 89.2 µM (inactive)

**Q.** For `CC(C)(C)c1cc(Cl)ccc1OCCOCCN1CCCC1`, which AC50 [16] is on record?
**A.** Its AC50 is 6.93 µM (active).

**Q.** What about the CC50 [17] of the same compound?
**A.** Its CC50 is 67.4 µM (active).

**Q.** And the IC50 [18]?
**A.** The IC50 was 104 µM (active).

**Q.** With `COC(=O)C1=C(COc2ccccc2)NC(=O)NC1c1ccc(Br)cc1` (stereo not given) as the compound, how does the IC50 [7] read?
**A.** The IC50 was > 66.6 µM (inactive).

**Q.** And the IC50 [8]?
**A.** The IC50 was 15.2 µM (active).
